# Test results as given in article PMC10846744, “Cathelicidin peptide analogues inhibit EV71 infection through blocking viral entry and uncoating” (PLOS Pathogens, 2024).
# Where no end group is shown, it is not given here.
# Experiments:
# EV71 virus = assay: 1H NMR titration of peptide with EV71 virus; assay type: binding, enterovirus 71 (EV71); details: molar ratio peptide to virus 90:1, 800 MHz, 298k
# Method: (§1) The NMR titrations were performed on a Bruker 800 MHz (Avance NEO) spectrometer equipped with cryo-probe. The molar ratio of the peptide to the virus was 90:1. The experiments were recorded using zgespg pulse for 128 scans at 298k and the results were analyzed by Topspin.
# CVB5 virus = assay: 1H NMR titration of peptide with CVB5 virus; assay type: binding, coxsackievirus B5; details: molar ratio peptide to virus 90:1, 800 MHz, 298k
# Method: as §1
# [1] = test system: mouse-adapted EV71 (mEV71); assay: mEV71 infection inhibition in RD cells; assay type: cell-based, enterovirus 71 (EV71); details: mEV71 pre-incubated with LL-18 1 hr, titer 24 h.p.i (S5B Fig)
# Method: Supplementary file ppat.1011967.s005.tif: S5 Fig LL-18 inhibits mEV71 infection in vivo. (A) 6-day-old ICR mice were infected with parental EV71 or mouse-adapted virus (mEV71) and the mice survival rate was determined. (B) RD cells infected with mEV71 pre-incubated with PBS or LL-18 for 1 hr were determined for virus titer 24 h.p.i. ***, P<0.001. (C) ICR mice infected with mEV71 or mEV71 pre-incubated with the indicated amount of LL-18 were sacrificed at 1 d.p.i. and viral titers from muscle were determined. ns, not significant; ***, P<0.001. (TIF) Click here for additional data file.
# EV71 P30 virus = assay: Resistance induction assay (30 passages); assay type: cell-based, enterovirus 71 (EV71); details: 20 passages at 0.9 μM then 10 at 1.5 μM LL-18; 1.5 μM LL-18 pre-incubation 1 h, RD cell viability 24 h.p.i
# Method: (A) Diagram of resistance induction assay. (B) RD cells infected with parental EV71 or P30 with or without 1.5 μM LL-18 pre-incubation were tested for cell viability 24 h.p.i. ns, not significant; ***, P<0.001.
# Resistance induction assay was conducted as previously reported. Briefly, virus was first successively passaged in RD cells for 20 generations in the presence of a lower concentration of LL-18 (0.9 μM). The progeny virus was then passaged for another 10 generations with 1.5 μM LL-18, and the progeny virus was designated as P30. The parental EV71 and P30 with the same titer were pre-incubated with 1.5 μM LL-18 for 1 h and then tested for cell viability 24 h.p.i.
# IFN-β = IFN-β production in RD cells (q-RT-PCR); assay type: cell-based, human
# Method: For real-time PCR, cells were treated as described, and cellular total RNA was isolated using the Cell Total RNA Isolation Kit (ForeGene, China) according to the manufacturer’s protocol. The cDNA was synthesized using the ProtoScript II First Strand cDNA Synthesis Kit (New England Biolabs). cDNA was then determined with 2×RealStar Green Fast Mixture (GenStar, China) with the following primers: […]
# Supplementary file ppat.1011967.s007.tif: S7 Fig Induction of IFN-β production by peptides. (A) RD cells treated with 1.5 μM LL-18 or LL-37 for indicated time and IFN-β production was detected by q-RT-PCR. (B) RD cells treated with EV71 viruses pre-treated with PBS or LL-18 for indicated time and IFN-β production was detected by q-RT-PCR. ns, not significant; **, P<0.01; ***, P<0.001. (TIF) Click here for additional data file.
sequence,measurement,setting,value
FRKSKEKIGKLFKRIVQRILDFLRNLV [LL-18],interaction of peptide with EV71 virus by 1H 1D NMR (amide region),EV71 virus,chemical shift perturbation with multiple new peaks was observed
same,interaction of peptide with CVB5 virus by 1H 1D NMR (amide region),CVB5 virus,little effect on the spectra of peptides
same,inhibition of mEV71 infection in RD cells (virus titer),[1],could still inhibit the infection of this mEV71 strain in RD cells
same,susceptibility of P30 virus to LL-18,EV71 P30 virus,still as susceptible to LL-18 as the parental virus
same,interferon (IFN-β) production after pre-incubation of peptide with viruses,"IFN-β; RD cells treated with EV71 pre-treated with LL-18, q-RT-PCR (S7B Fig)",reduced its ability to induce interferon production
same,induction of interferon (IFN-β) production by peptide alone,"IFN-β; RD cells, 1.5 μM peptide, q-RT-PCR (S7A Fig)",could induce interferon production
